Target: T1, recombinant human CETP (Homo sapiens, UniProt P11597)
T1 construct: made in house; host or cells: CHO cells (protein secreted into conditioned medium)
T1 sequence (P11597 18-493): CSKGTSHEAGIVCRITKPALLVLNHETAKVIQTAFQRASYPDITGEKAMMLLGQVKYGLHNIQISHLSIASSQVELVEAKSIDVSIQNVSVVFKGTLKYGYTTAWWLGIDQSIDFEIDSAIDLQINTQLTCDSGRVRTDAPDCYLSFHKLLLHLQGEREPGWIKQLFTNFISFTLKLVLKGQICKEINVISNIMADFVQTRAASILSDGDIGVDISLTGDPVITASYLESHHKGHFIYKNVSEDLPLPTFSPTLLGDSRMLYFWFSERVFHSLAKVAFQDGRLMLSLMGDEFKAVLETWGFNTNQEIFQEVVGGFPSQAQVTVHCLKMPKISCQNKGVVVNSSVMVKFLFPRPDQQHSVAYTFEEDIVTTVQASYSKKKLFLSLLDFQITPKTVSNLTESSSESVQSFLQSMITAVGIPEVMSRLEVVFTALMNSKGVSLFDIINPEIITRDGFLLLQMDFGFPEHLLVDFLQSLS
Assay: CETP in vitro fluorometric assay (Roar Biomedical), cholesterol ester transfer from HDL to LDL
Assay type: biochemical
Conditions: recombinant human CETP from CHO cells; 3 hours at 37° C.; fluorescence ex 485 nm / em 535 nm; compound concentrations between 1 nM and 30 μM; read-out: IC50 values for inhibition of CETP
Procedure: CETP inhibitory activity of compounds of the present invention can be determined in a fluorometric assay puchased from Roar Biomedical, Inc. (New York, N.Y., USA). […] Recombinant human CETP was partially purified from medium conditioned by CETP expressing CHO cells. In a 384 well format 2.5 μl of compound solution in DMSO was combined with 2 μl of donor solution, 2 μl of acceptor solution and 0.8 μl of recombinant human CETP solution in a total volume of 100 μl with assay buffer and incubated for 3 hours at 37° C. The fluorescence intensity was measured at excitation wavelength of 485 nm and emission wavelength of 535 nm. IC50 values are calculated from dose effect curves from compound concentrations between 1 nM and 30 μM.

CC1(C)Cc2nc(C3CCOCC3)c3c(c2[C@@H](O)C1)C1(CCCC1)O[C@@H]3c1ccc(C(C)(C)C)cc1 [1(36), (3′R,9′S)-3′-(4-tert-butylphenyl)-7′,7′-dimethyl-4′-(tetrahydro-2H-pyran-4-yl)-6′,7′,8′,9′-tetrahydro-3′H-spiro[cyclopentane-1,1′-furo[3,4-c]quinolin]-9′-ol]
IC50: 74 nM

From patent US20120053197A1, “TRICYCLIC PYRIDINE DERIVATIVES, MEDICAMENTS CONTAINING SUCH COMPOUNDS, THEIR USE AND PROCESS FOR THEIR PREPARATION” (BOEHRINGER INGELHEIM INTERNATIONAL GMBH, priority 2010, published 2012)
